# Measured values reported in PubChem BioAssay AID2060511 (Molecular Pharmacology Branch, DTP, NCI, 2025).
# Tested on: 422866-222-R5-J1-PDC spheroids with HUVEC/MSC, viability
# Assay: Anticancer human tumor 422866-222-R5-J1-PDC patient-derived pancreatic adenocarcinoma cell line growth inhibition [GQUAD]
# Details: for IC50: curve of first compound; for viability, T/C: stronger effect = lower value
# How it was run: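 Viability of tumor cells grown as complex spheroids with endothelial and stromal cells, exposed to drug combinations. Top concentration at or near clinical Cmax (else 10 microM), diluted in half-log increments.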
# [1] = second compound 0.0316 µM, first compound 0.0316 µM
# [2] = second compound 0.0316 µM, first compound 0.1 µM
# [3] = second compound 0.0316 µM, first compound 0.316 µM
# [4] = second compound 0.0316 µM, first compound 1 µM
# [5] = second compound 0.0316 µM, first compound 3.16 µM
# [6] = second compound 0.0316 µM, first compound 10 µM
# [7] = second compound 0.1 µM, first compound 0.0316 µM
# [8] = second compound 0.1 µM, first compound 0.1 µM
# [9] = second compound 0.1 µM, first compound 0.316 µM
# [10] = second compound 0.1 µM, first compound 1 µM
# [11] = second compound 0.1 µM, first compound 3.16 µM
# [12] = second compound 0.1 µM, first compound 10 µM
# [13] = second compound 0.316 µM, first compound 0.0316 µM
# [14] = second compound 0.316 µM, first compound 0.1 µM
# [15] = second compound 0.316 µM, first compound 0.316 µM
# [16] = second compound 0.316 µM, first compound 1 µM
# [17] = second compound 0.316 µM, first compound 3.16 µM
# [18] = second compound 0.316 µM, first compound 10 µM
# [19] = second compound 1 µM, first compound 0.0316 µM
# [20] = second compound 1 µM, first compound 0.1 µM
# [21] = second compound 1 µM, first compound 0.316 µM
# [22] = second compound 1 µM, first compound 1 µM
# [23] = second compound 1 µM, first compound 3.16 µM
# [24] = second compound 1 µM, first compound 10 µM
# [25] = second compound 3.16 µM, first compound 0.0316 µM
# [26] = second compound 3.16 µM, first compound 0.1 µM
# [27] = second compound 3.16 µM, first compound 0.316 µM
# [28] = second compound 3.16 µM, first compound 1 µM
# [29] = second compound 3.16 µM, first compound 3.16 µM
# [30] = second compound 3.16 µM, first compound 10 µM
# [31] = second compound 10 µM, first compound 0.0316 µM
# [32] = second compound 10 µM, first compound 0.1 µM
# [33] = second compound 10 µM, first compound 0.316 µM
# [34] = second compound 10 µM, first compound 1 µM
# [35] = second compound 10 µM, first compound 3.16 µM
# [36] = second compound 10 µM, first compound 10 µM
# 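Note: spheroids exposed to compounds for seven days before reading.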
# 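Throughout, for viability, T/C: percent viability relative to DMSO vehicle control taken as 100%.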
compound,measurement,setting,value
CC(=O)O[C@H]1C(=O)[C@@]2(C)[C@H]([C@H](OC(=O)c3ccccc3)[C@]3(O)C[C@H](OC(=O)[C@H](O)[C@@H](NC(=O)c4ccccc4)c4ccccc4)C(C)=C1C3(C)C)[C@]1(OC(C)=O)CO[C@@H]1C[C@@H]2O + Cc1cnc(CNC(=O)c2c(=O)c3ccc(N4CCCN(C)CC4)nc3n3c2sc2ccccc23)cn1,IC50,second compound 0.0316 µM,> 10 µM
same,IC50,second compound 0.1 µM,> 10 µM
same,IC50,second compound 0.316 µM,> 10 µM
same,IC50,second compound 1 µM,> 10 µM
same,IC50,second compound 3.16 µM,> 10 µM
same,IC50,second compound 10 µM,> 10 µM
same,"viability, T/C",[1],81%
same,"viability, T/C",[2],67.2%
same,"viability, T/C",[3],80.3%
same,"viability, T/C",[4],71.9%
same,"viability, T/C",[5],73.8%
same,"viability, T/C",[6],91.6%
same,"viability, T/C",[7],88%
same,"viability, T/C",[8],86.3%
same,"viability, T/C",[9],77.1%
same,"viability, T/C",[10],86.2%
same,"viability, T/C",[11],95.5%
same,"viability, T/C",[12],97.4%
same,"viability, T/C",[13],89.5%
same,"viability, T/C",[14],82.8%
same,"viability, T/C",[15],85.3%
same,"viability, T/C",[16],107%
same,"viability, T/C",[17],115%
same,"viability, T/C",[18],117%
same,"viability, T/C",[19],79.2%
same,"viability, T/C",[20],74.6%
same,"viability, T/C",[21],86.5%
same,"viability, T/C",[22],94.5%
same,"viability, T/C",[23],117%
same,"viability, T/C",[24],119%
same,"viability, T/C",[25],83.3%
same,"viability, T/C",[26],94.5%
same,"viability, T/C",[27],94.1%
same,"viability, T/C",[28],91.7%
same,"viability, T/C",[29],118%
same,"viability, T/C",[30],107%
same,"viability, T/C",[31],80.1%
same,"viability, T/C",[32],78.8%
same,"viability, T/C",[33],71.6%
same,"viability, T/C",[34],101%
same,"viability, T/C",[35],104%
same,"viability, T/C",[36],123%
CC(C)(O)C1CCC(Nc2ccc3ncc(-c4cccc(C(F)(F)F)c4)n3n2)CC1 (centres undefined) + Cc1cnc(CNC(=O)c2c(=O)c3ccc(N4CCCN(C)CC4)nc3n3c2sc2ccccc23)cn1,IC50,second compound 0.0316 µM,1.44 µM
same,IC50,second compound 0.1 µM,> 10 µM
same,IC50,second compound 0.316 µM,> 10 µM
same,IC50,second compound 1 µM,> 10 µM
same,IC50,second compound 3.16 µM,> 10 µM
same,IC50,second compound 10 µM,1.81 µM
same,"viability, T/C",[1],102%
same,"viability, T/C",[2],80.6%
same,"viability, T/C",[3],97.1%
same,"viability, T/C",[4],51.4%
same,"viability, T/C",[5],42%
same,"viability, T/C",[6],51.8%
same,"viability, T/C",[7],91.4%
same,"viability, T/C",[8],76.3%
same,"viability, T/C",[9],81.2%
same,"viability, T/C",[10],66.5%
same,"viability, T/C",[11],58.8%
same,"viability, T/C",[12],63.7%
same,"viability, T/C",[13],86.8%
same,"viability, T/C",[14],83.9%
same,"viability, T/C",[15],75.1%
same,"viability, T/C",[16],78.6%
same,"viability, T/C",[17],76.3%
same,"viability, T/C",[18],75.5%
same,"viability, T/C",[19],74.6%
same,"viability, T/C",[20],88.7%
same,"viability, T/C",[21],79.4%
same,"viability, T/C",[22],75.6%
same,"viability, T/C",[23],82.3%
same,"viability, T/C",[24],75.4%
same,"viability, T/C",[25],71.1%
same,"viability, T/C",[26],101%
same,"viability, T/C",[27],76%
same,"viability, T/C",[28],72.8%
same,"viability, T/C",[29],68.5%
same,"viability, T/C",[30],54.1%
same,"viability, T/C",[31],83%
same,"viability, T/C",[32],67.8%
same,"viability, T/C",[33],83.2%
same,"viability, T/C",[34],75.5%
same,"viability, T/C",[35],25.9%
same,"viability, T/C",[36],0.79%
